Measured values from US11945822B2, “Pyrazolo-triazine and/or pyrazolo-pxrimidine derivatives as selective inhibitor of cyclin dependent kinase” (QURIENT CO., LTD., priority 2018, dated 2024).

Assays:
CDK9/CycK = target: T1, CDK9/CycK (Homo sapiens, UniProt P50750); test: In vitro IC50 profile for CDKs family kinase (33PanQinase radiometric assay); format: biochemical; details: CDK7 selectivity profile in CDKs family
T1 construct: purchased ProQinase GmbH
Description: (§1) In Vitro IC50 Profile for CDK7 Inhibitor Among 28 CDKs Family Kinases.
(§2) The IC50 profile of compounds were determined using 28 CDKs family protein kinases through ProQinase GmbH (Freiburg, Germany). All the protocol and materials had been provided by ProQinase GmbH. Briefly, in the process, 90 μl H2O were added to each well of a compound dilution plate. To minimize potential precipitation, the H2O was added to the plate only a few minutes before the transfer of the compound solutions into the assay plates. The plate was shaken thoroughly, resulting in a “compound dilution plate/10% DMSO”. The compound dilution plate(s) were discarded at the end of the working day. For the assays (see below), 5 μl solution from each well of the compound dilution plate were transferred into the assay plates. The final volume of the assay was 50 μl. All compounds were tested at 10 final assay concentrations in the range from 1×10^−05 M to 3×10^−10 M. The final DMSO concentration in the reaction cocktails was 1% in all cases. All protein kinases provided by ProQinase were expressed in Sf9 insect cells or in E. coli as recombinant GST-fusion proteins or His-tagged proteins, either as full-length or enzymatically active fragments. All kinases were produced from human cDNAs and purified by either GSH affinity chromatography or immobilized metal affinity chromatography. The purity of the protein kinases was examined by SDS-PAGE/Coomassie staining, the identity was checked by mass spectroscopy. Kinases from external vendors, Carna Biosciences Inc.; Invitrogen Corp.; and Millipore Corp., were expressed, purified and quality-controlled by virtue of the vendors readings. A radiometric protein kinase assay (^33PanQinase® Activity Assay) was used for measuring the kinase activity of the 28 protein kinases. All kinase assays were performed in 96-well FlashPlates™ from PerkinElmer (Boston, MA, USA) in a 50 μl reaction volume. The reaction cocktails were incubated at 30° C. for 60 minutes. The reaction was stopped with 50 μl of 2% (v/v) H3PO4, plates were aspirated and washed two times with 200 μl 0.9% (w/v) NaCl. Incorporation of ^33Pi was determined with a microplate scintillation counter (Microbeta, Wallac). All assays were performed with a BeckmanCoulter/SAGIAN™ Core System. As part of the data evaluation the low control value from a particular plate was subtracted from the high control value as well as from all 80 “compound values” of the corresponding plate. The residual activity (in %) for each well of a particular plate was calculated by using the following formula: Res. Activity (%)=100×[(cpm of compound−low control)/(high control−low control)]. Results are represented in table (table 10).

CDK3/CycC = target: T2, CDK3/CycC (Homo sapiens, UniProt Q00526); test: as above; format: biochemical; details: CDK7 selectivity profile in CDKs family
T2 construct: purchased ProQinase GmbH
T2 sequence (Q00526 whole entry): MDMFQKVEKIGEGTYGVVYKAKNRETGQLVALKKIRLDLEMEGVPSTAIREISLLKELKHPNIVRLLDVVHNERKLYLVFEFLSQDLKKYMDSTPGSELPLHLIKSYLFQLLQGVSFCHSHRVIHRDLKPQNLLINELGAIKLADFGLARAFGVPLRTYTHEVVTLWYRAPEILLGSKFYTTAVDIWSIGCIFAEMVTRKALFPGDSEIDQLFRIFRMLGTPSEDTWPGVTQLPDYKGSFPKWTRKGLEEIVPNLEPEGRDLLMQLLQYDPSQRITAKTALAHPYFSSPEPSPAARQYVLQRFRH
T2 sequence (P24863 whole entry partner): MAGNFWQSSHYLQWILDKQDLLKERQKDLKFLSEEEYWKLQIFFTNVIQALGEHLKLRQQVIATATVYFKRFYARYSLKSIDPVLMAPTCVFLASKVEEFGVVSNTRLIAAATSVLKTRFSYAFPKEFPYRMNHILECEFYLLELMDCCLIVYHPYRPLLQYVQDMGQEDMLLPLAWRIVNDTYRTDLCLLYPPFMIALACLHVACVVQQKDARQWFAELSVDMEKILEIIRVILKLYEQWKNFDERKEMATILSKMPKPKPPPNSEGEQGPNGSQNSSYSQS
Description: as §1, §2

CDK20/CycH = target: T3, CDK20/CycH (Homo sapiens, UniProt Q8IZL9); test: as above; format: biochemical; details: CDK7 selectivity profile in CDKs family
T3 construct: either as full-length or enzymatically active fragments; purchased ProQinase GmbH (Freiburg, Germany)
T3 sequence (Q8IZL9 whole entry, the tested form may be a part): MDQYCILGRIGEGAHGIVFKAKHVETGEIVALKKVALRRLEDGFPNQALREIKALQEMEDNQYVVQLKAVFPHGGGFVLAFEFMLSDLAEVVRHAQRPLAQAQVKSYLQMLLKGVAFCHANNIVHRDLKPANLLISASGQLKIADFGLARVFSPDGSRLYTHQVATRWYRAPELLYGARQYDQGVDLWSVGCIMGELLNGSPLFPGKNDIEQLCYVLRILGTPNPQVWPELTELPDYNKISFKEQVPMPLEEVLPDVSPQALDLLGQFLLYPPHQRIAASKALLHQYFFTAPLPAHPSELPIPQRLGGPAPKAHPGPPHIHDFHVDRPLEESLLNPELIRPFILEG
T3 sequence (P51946 whole entry partner, the tested form may be a part): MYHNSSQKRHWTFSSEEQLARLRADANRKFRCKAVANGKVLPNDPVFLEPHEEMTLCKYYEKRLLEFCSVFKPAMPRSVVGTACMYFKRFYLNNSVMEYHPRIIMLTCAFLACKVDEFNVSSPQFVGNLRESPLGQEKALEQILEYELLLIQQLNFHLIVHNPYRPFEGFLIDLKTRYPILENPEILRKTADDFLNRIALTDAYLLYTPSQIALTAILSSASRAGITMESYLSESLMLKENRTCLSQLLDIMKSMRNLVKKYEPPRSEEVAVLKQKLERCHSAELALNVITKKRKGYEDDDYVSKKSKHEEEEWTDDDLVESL
Description: as §1, §2

MV4-11 = test: Cellular MV4-11 viability assay (CellTiter-Glo, 72 hours); format: cell-based; details: Homo sapiens
Outline: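 Cells plated in 96 wells and exposed to compound 72 h at 37 °C, 5% CO2, final DMSO below 0.1%, DMSO control. Viability by CellTiter-Glo luminescence, duplicate.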

T1 sequence (P50750 whole entry): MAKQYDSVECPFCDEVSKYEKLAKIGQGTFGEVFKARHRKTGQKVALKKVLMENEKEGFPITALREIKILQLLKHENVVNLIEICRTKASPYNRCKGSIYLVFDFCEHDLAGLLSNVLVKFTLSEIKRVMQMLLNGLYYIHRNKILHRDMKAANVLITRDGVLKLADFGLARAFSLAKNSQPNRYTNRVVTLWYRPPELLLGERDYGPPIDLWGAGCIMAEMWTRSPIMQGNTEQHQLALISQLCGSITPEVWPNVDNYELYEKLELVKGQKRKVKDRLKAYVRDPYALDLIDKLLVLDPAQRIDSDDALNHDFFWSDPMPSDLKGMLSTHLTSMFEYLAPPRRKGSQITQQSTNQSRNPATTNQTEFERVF
T1 sequence (O75909 whole entry partner): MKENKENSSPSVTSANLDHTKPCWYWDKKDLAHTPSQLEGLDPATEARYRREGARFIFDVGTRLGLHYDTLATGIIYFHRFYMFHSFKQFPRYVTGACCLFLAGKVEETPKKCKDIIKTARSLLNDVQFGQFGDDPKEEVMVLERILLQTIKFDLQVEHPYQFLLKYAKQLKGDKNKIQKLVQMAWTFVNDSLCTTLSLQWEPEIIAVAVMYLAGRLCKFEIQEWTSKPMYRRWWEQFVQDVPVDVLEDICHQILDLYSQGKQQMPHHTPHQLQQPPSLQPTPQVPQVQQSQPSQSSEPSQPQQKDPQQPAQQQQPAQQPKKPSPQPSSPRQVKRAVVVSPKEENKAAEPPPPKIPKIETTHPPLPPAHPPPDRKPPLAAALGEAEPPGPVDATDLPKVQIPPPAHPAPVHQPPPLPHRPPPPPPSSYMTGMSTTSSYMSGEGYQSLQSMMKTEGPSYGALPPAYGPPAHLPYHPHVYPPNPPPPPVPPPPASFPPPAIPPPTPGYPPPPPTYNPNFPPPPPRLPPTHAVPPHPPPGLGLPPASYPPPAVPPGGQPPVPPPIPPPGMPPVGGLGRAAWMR

Structure (SMILES): CC(C)c1cnn2c(NCc3c(Cl)cccc3-n3ccc(C(C)(C)O)n3)nc(N3CCC(N)CC3)nc12 [Compound 210]
- IC50 (CDK9/CycK): > 10 µM
- IC50 (CDK3/CycC): > 10 µM
- IC50 (CDK20/CycH): > 10 µM
- IC50 (MV4-11): < 1 µM
